Experimental data from patent publication US7371536B2, “Methods for transporting vitamin C” (priority 1999, dated 2008).

Tests used:
Assay type in all cases: cell-based
[1] = biological target: T1, human SVCT1 (Homo sapiens, UniProt Q9UHI7); experiment: L-[14C]ascorbic acid radiotracer uptake in Xenopus oocytes expressing human SVCT1; conditions: data not shown
T1 construct: expressed in transfected cells; host or cells: Xenopus laevis oocytes injected with cRNA (vector pTLN2)
Experimental: Functional characterization in Xenopus oocytes—SVCT1 and SVCT2 cDNAs were subcloned into the pTLN2 vector (to improve functional expression in oocytes) and used for cRNA synthesis in vitro using the MEGAscript kit and T7 RNA polymerase (from Ambion). Oocytes were isolated from Xenopus laevis, treated with collagenase A and maintained at 18° C. in modified Barths' medium. Oocytes were injected with 15 ng SVCT1 or SVCT2 cRNA or water only. The radiotracer uptake and voltage-clamp experiments described below were conducted 2-5 days post-injection in standard medium of composition 100 mM NaCl, 2 mM KCl, 1 mM CaCl2, 1 mM MgCl2, and 10 mM HEPES (buffered to pH 7.5 with Tris base). For low-Na^+ or Na^+-free media, NaCl was replaced with choline chloride. For pH-dependence experiments, Na^+ media were buffered to between pH 5.5 and pH 8.0 using 0-5 mM MES, 0-5 mM HEPES and 0-5 mM Tris base. L-Ascorbic acid-containing solutions were always freshly prepared and used immediately. […] Oocytes were solubilized with 10% SDS and carbon-14 content measured by liquid scintillation counting. A two-microelectrode voltage-clamp was used to measure currents associated with SVCT1 expressed in oocytes. Oocytes were superfused at 22° C. in standard Na^+ medium and clamped at −50 mV. Current was continuously monitored by sampling at 1 Hz. Test solutions were always washed out with substrate-free, Na^+-free medium at pH 7.5 for several minutes. Once again, saturation kinetics data were fit to a modified Hill equation in which I and Imax were replaced by uptake V and maximal velocity Vmax for analysis of radiotracer uptake data.

[2] = biological target: T1, human SVCT1; experiment: Two-microelectrode voltage-clamp of Xenopus oocytes expressing human SVCT1; conditions: for transport / substrate selectivity (in words): 500 μM, −50 mV
Experimental: Functional characterization in Xenopus oocytes—SVCT1 and SVCT2 cDNAs were subcloned into the pTLN2 vector (to improve functional expression in oocytes) and used for cRNA synthesis in vitro using the MEGAscript kit and T7 RNA polymerase (from Ambion). Oocytes were isolated from Xenopus laevis, treated with collagenase A and maintained at 18° C. in modified Barths' medium. Oocytes were injected with 15 ng SVCT1 or SVCT2 cRNA or water only. The radiotracer uptake and voltage-clamp experiments described below were conducted 2-5 days post-injection in standard medium of composition 100 mM NaCl, 2 mM KCl, 1 mM CaCl2, 1 mM MgCl2, and 10 mM HEPES (buffered to pH 7.5 with Tris base). For low-Na^+ or Na^+-free media, NaCl was replaced with choline chloride. For pH-dependence experiments, Na^+ media were buffered to between pH 5.5 and pH 8.0 using 0-5 mM MES, 0-5 mM HEPES and 0-5 mM Tris base. L-Ascorbic acid-containing solutions were always freshly prepared and used immediately. Radiotracer uptake was determined by incubating 8-12 oocytes for 30 min (within the time-course of linear uptake) in standard Na^+, low-Na^+ or Na^+-free media with 10-500 μM L-[1-^14C]ascorbic acid (final specific activity ≈0.3 GBq/mmol). Oocytes were solubilized with 10% SDS and carbon-14 content measured by liquid scintillation counting. A two-microelectrode voltage-clamp was used to measure currents associated with SVCT1 expressed in oocytes. Oocytes were superfused at 22° C. in standard Na^+ medium and clamped at −50 mV. Current was continuously monitored by sampling at 1 Hz. Test solutions were always washed out with substrate-free, Na^+-free medium at pH 7.5 for several minutes. Once again, saturation kinetics data were fit to a modified Hill equation in which I and Imax were replaced by uptake V and maximal velocity Vmax for analysis of radiotracer uptake data.

[3] = biological target: T2, rat SVCT1 (Rattus norvegicus, UniProt Q9WTW7); experiment: Two-microelectrode voltage-clamp of Xenopus oocytes expressing rat SVCT1; conditions: for evoked current / substrate selectivity (in words): oocytes expressing SVCT1
T2 construct: expressed in transfected cells; host or cells: Xenopus laevis oocytes injected with cRNA
Experimental: Rat SVCT1 and SVCT2 clones were obtained by isolating SVCT1 cDNA from rat kidney by expression cloning as described in Hediger et al., Methods Enzymol. 296:17-52 (1998). The SVCT2 cDNA was subsequently isolated by PCR-based homology screening of a rat brain cDNA library. […] Radiotracer and voltage-clamp experiments were performed (at 22° C.) in Xenopus oocytes two to seven days after injection with ˜25 ng of SVCT1 or SVCT2 cRNA synthesized in vitro. Radiotracer uptake was determined by incubating 6-10 oocytes for 30 or 60 min in standard 100 mM Na^+ or Na^+-free media with 10-600 μM L-[^14C]ascorbic acid.
(§1) Functional characterization of SVCT1 and SVCT2 in Xenopus oocytes—Oocytes were isolated from Xenopus laevis (under 2-aminoethylbenzoate anaesthesia), treated with collagenase A and stored at 18° C. in modified Barths' medium. Oocytes were injected with ≈25 ng of SVCT1 or SVCT2 cRNA synthesized in vitro, or water only (control), and incubated 2-7 days before radiotracer or voltage-clamp experiments were performed. Standard Na^+ uptake medium comprised 100 mM NaCl, 2 mM KCl, 1 mM CaCl2, 1 mM MgCl2, 10 mM HEPES (pH 7.5 with Tris base). For Na^+-free or low-Na^+ media, NaCl was replaced by equimolar choline chloride; likewise, Cl^− was replaced by gluconate for Cl^−-free medium. For pH-sensitivity experiments, Na^+ media were buffered at pH 5.5-8.0 using 0-5 mM MES, 0-5 mM HEPES and 0-5 mM Tris base. L-Ascorbic acid-containing solutions were freshly-prepared (without dithiothreitol) and used immediately.
(§2) Radiotracer uptake was determined by incubating 6-10 oocytes for 30 or 60 min in standard Na^+ or Na^+-free media (at 22° C.) with 10-600 μM L-[1-^14C]ascorbic acid (final specific activity 0.3 GBq/mmol). Oocytes were solubilized with 10% SDS and [^14C]-content was measured by liquid scintillation counting. A two-microelectrode voltage-clamp was used to measure currents in control oocytes and oocytes injected with rat SVCT1 or rat SVCT2 cRNA. Microelectrodes (resistance 0.5-5 MΩ) were filled with 3 M KCl. Oocytes were superfused at 22° C. in standard Na^+ medium and clamped at a holding potential (Vh) of −50 mV. For continuous current monitoring at Vh=−50 mV, the current was low-pass filtered at 20 Hz (sampling at 1 Hz). Additionally, step-changes in membrane potential (Vm) were applied (from +50 mV to −150 mV in 20-mV increments), each for a duration of 100 ms, before and after the addition of substrate; current was low-pass filtered at 500 Hz and digitized at 5 kHz. Test solutions were always washed out with substrate-free medium (100 mM choline chloride) at pH 7.5 for several minutes. Steady-state data (obtained by averaging the points over the final 16.7 ms at each Vm step when step-changes were applied) were fitted to equation (1) below, for which I is the evoked current (i.e., the difference in steady-state current measured in the presence and absence of substrate), Imax the derived current maximum, S the concentration of substrate S (Na^+ or L-ascorbic acid),
(§3) [formula] the substrate concentration at which current was half-maximal, and nH the Hill coefficient for S. (For radiotracer experiments, I was replaced with velocity V and Imax replaced with the derived maximal velocity, Vmax.)

[4] = biological target: T2, rat SVCT1; experiment: L-[14C]ascorbic acid radiotracer uptake in Xenopus oocytes expressing rat SVCT1
Experimental: (§4) Rat SVCT1 and SVCT2 clones were obtained by isolating SVCT1 cDNA from rat kidney by expression cloning as described in Hediger et al., Methods Enzymol. 296:17-52 (1998). The SVCT2 cDNA was subsequently isolated by PCR-based homology screening of a rat brain cDNA library. A 2.5-kb rabbit cDNA with 96% identity to residues 96-505 of the rat SVCT2 was obtained by RT-PCR. Radiotracer and voltage-clamp experiments were performed (at 22° C.) in Xenopus oocytes two to seven days after injection with ˜25 ng of SVCT1 or SVCT2 cRNA synthesized in vitro. Radiotracer uptake was determined by incubating 6-10 oocytes for 30 or 60 min in standard 100 mM Na^+ or Na^+-free media with 10-600 μM L-[^14C]ascorbic acid.
as §1, §2, §3

[5] = biological target: T3, rat SVCT2 (Rattus norvegicus, UniProt Q9WTW8); experiment: L-[14C]ascorbic acid radiotracer uptake in Xenopus oocytes expressing rat SVCT2
T3 construct: expressed in transfected cells; host or cells: Xenopus laevis oocytes injected with cRNA (vector pTLN2)
Experimental: as §4, §1
as §2, with “Additionally, step-changes in membrane potential (Vm) were applied (from +50 mV to −150 mV in 20-mV increments), each for a duration of 100 ms, before and after the addition of substrate; current was low-pass filtered at 500 Hz and digitized at 5 kHz. Test solutions were always washed out with substrate-free medium (100 mM choline chloride) at pH 7.5 for several minutes.” left out, “acid), […]” for “acid),”

T2 sequence (Q9WTW7 whole entry): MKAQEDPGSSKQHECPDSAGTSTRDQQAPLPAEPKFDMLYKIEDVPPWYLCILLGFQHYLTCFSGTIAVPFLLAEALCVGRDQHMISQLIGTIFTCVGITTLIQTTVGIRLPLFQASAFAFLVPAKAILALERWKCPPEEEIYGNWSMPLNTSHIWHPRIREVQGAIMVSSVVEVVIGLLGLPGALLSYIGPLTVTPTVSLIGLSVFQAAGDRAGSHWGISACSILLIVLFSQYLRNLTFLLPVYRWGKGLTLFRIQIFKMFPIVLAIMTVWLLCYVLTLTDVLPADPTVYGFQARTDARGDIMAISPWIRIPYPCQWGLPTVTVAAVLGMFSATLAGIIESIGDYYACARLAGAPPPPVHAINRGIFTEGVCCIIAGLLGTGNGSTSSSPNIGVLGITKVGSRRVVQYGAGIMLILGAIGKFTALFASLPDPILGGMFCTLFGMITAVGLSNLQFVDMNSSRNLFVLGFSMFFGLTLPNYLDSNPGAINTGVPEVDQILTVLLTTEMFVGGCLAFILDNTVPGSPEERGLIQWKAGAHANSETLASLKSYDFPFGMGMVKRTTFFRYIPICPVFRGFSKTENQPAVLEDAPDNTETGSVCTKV
T3 sequence (Q9WTW8 whole entry): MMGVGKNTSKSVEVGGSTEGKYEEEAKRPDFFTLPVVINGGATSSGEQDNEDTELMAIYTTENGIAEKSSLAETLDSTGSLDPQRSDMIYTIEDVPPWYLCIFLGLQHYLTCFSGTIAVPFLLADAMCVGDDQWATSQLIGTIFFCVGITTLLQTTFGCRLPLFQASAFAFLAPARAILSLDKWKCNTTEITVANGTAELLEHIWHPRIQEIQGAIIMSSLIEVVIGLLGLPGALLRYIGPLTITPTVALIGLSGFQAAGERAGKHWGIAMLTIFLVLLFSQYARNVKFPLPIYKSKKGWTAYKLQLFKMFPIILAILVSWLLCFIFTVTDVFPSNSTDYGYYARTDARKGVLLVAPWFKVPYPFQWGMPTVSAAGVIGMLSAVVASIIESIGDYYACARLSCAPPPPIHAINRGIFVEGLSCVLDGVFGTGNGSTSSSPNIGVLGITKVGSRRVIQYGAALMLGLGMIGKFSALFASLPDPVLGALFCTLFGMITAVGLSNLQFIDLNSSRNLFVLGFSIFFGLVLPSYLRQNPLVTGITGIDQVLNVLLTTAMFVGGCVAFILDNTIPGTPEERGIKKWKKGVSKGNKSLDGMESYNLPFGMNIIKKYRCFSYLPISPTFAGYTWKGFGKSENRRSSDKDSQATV
T1 sequence (Q9UHI7 whole entry): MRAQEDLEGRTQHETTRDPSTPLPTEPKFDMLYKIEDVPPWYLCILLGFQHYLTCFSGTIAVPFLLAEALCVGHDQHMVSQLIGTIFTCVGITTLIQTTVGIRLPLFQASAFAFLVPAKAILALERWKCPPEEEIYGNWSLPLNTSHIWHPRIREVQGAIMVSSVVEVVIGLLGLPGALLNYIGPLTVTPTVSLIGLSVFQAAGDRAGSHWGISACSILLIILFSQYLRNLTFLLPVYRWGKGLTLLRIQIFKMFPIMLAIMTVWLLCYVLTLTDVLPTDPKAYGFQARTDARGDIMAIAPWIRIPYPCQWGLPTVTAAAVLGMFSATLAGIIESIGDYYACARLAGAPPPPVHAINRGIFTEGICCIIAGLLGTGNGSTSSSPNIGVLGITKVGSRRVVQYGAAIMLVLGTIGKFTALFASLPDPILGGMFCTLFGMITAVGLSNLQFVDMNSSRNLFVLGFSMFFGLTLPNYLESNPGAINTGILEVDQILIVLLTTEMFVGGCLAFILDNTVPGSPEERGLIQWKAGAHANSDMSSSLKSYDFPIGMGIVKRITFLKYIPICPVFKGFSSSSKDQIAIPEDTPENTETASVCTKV

| Structure (SMILES) | inhibition of L-[14C]ascorbic acid uptake (in words) [1] | transport / substrate selectivity (in words) [2] | evoked current / substrate selectivity (in words) [3] | inhibition of SVCT1-mediated L-[14C]ascorbic acid uptake (in words) [4] | inhibition of SVCT2-mediated L-[14C]ascorbic acid uptake (in words) [5] | other results |
| --- | --- | --- | --- | --- | --- | --- |
| O=C[C@H](O)[C@@H](O)[C@H](O)[C@H](O)CO [D-glucose] | not significantly inhibited | excluded | excluded | – | – | – |
| CC(=O)Oc1ccccc1C(=O)O [aspirin, acetyl-salicylic acid] | not significantly inhibited | – | tiny outward currents | modest inhibition | modest inhibition | – |
| O=C(CCc1ccc(O)cc1)c1c(O)cc(O)cc1O [phloretin] | – | – | sizable outward current | inhibited | inhibited | inhibition of L-[14C]ascorbic acid uptake [1]: ≈ 80%; inhibition of the L-ascorbic acid-evoked current (in words) ([2]; FIG. 8A, 100 μM phloretin): potent inhibitor; block of the Na^+ leak current (in words) ([2]; absence of L-ascorbic acid or other substrate): blocked; mode of inhibition of L-[14C]ascorbic acid uptake ([4]; Dixon analysis): non-competitive inhibitor; Ki ([4]; FIG. 4I, read-out: Ki, Dixon analysis of L-[14C]ascorbic acid uptake): ~65 µM; block of the inward current evoked by L-ascorbic acid ([3]; FIG. 4H): blocked; Ki ([3]; uniport mode, absence of L-ascorbic acid, read-out: apparent Ki, inhibition of the Na^+ leak current): ~100 µM |
| O=C(CCc1ccc(O)cc1)c1c(O)cc(O)cc1O[C@@H]1O[C@H](CO)[C@@H](O)[C@H](O)[C@H]1O [phlorizin] | – | – | tiny outward currents | modest inhibition | modest inhibition | – |

Now from value to compound, other results behind:

| inhibition of L-[14C]ascorbic acid uptake (in words) [1] | transport / substrate selectivity (in words) [2] | evoked current / substrate selectivity (in words) [3] | inhibition of SVCT1-mediated L-[14C]ascorbic acid uptake (in words) [4] | inhibition of SVCT2-mediated L-[14C]ascorbic acid uptake (in words) [5] | Structure (SMILES) | other results |
| --- | --- | --- | --- | --- | --- | --- |
| – | barely transported | – | – | – | O=C1O[C@H]([C@@H](O)CO)C(=O)C1=O [dehydroascorbic acid] | evoked current relative to that for L-ascorbic acid ([3]; substrate selectivity, FIG. 4F): ≈ 5% |
| – | – | tiny outward currents | modest inhibition | modest inhibition | O=c1[nH]c(=O)c2[nH]cnc2[nH]1 [xanthine] | – |
